Values of other authors, collected in patent US20260083654A1, “PHOTOPROTECTIVE SYSTEM CONSISTING OF 4 SUNSCREENS” (PIERRE FABRE DERMO-COSMETIQUE, priority 2019, published 2026).
Values joined by “and” are separate entries in the source; they are usually repeats but may differ in a detail not shown here. Identical values can stand only once.

Conditions: two peaks, broad spectrum filter

**Q.** With CCCCC(CC)COc1ccc(-c2nc(-c3ccc(OC)cc3)nc(-c3ccc(OCC(CC)CCCC)cc3O)n2)c(O)c1 (stereo not shown) [BEMT, 2,4-bis[4-(2-ethylhexyloxy)-2-hydroxyphenyl]-6-(4-methoxyphenyl)-1,3,5-triazine] as the compound, how does the absorption peaks read?
**A.** 310 nm and 340 nm
